# Measured values published in article PMC7693160 (Pharmaceutics, 2020).
# “And” between values parts separate entries of the source, which are not always exact repeats. Equal values may be shown once. Read-outs that look alike come from different tables or passages of the source. Marks after values point to notes of the source that are not given here.
# Tests used:
# CYP2C9 1*/1* = details: Recombinant CYP (fu,mic = 1), cited from earlier work
# [1] = cited from earlier work
# physchem = format: physicochemical
# From the text: An experimental estimate of FLU pKa was obtained by fitting the Henderson–Hasselbalch equation (Equation (1)) to the mean aqueous equilibrium solubility (Si) values using the SIVA Toolkit version 3.0 (SIVA 3; Certara, Simcyp Division; Sheffield, UK). The lowest reported value in buffers was assumed to represent the intrinsic solubility (S0) . The pKa was then compared with values available in the literature to confirm the validity of the aqueous solubility parameter estimates. (1) Si=S0·10 ^pH−pKa The impact of bile salt concentration BS and subsequent formation of micelles on the solubility of FLU was investigated. […] Estimates of the logarithm of the micelle-water partition coefficient for the neutral Km:w,unionized and ionized drug Km:w,ionized were obtained to quantify the micelle-mediated solubility. […] Estimation of the relevant parameters was performed using the Nelder–Mead algorithm with weighting by the reciprocal of the predicted values. All estimates based on the in vitro solubility data were used as in silico input parameters for the development of the physiologically based pharmacokinetic (PBPK) model.
# [2] = 1st value, ref Lee et al. (2003) as printed
# [3] = 2nd value, ref Lee et al. (2015) as printed
# [4] = po sol s.d. 40 mg, CYP2C9 1*/1*
# [5] = po sol s.d. 40 mg, CYP2C9 1*/3*
# [6] = po tab (Froben) s.d. 100 mg, ref 4
# [7] = po tab (Froben) s.d. 100 mg, ref 38
# [8] = po tab s.d. 50 mg, CYP2C9 1*/1*
# [9] = po tab s.d. 50 mg, CYP2C9 1*/1*, median
# [10] = po tab s.d. 50 mg, CYP2C9 1*/2*
# [11] = po tab s.d. 50 mg, CYP2C9 1*/3*
# [12] = po tab s.d. 50 mg, CYP2C9 1*/3*, median
# [13] = po tab s.d. 50 mg, CYP2C9 3*/3*, individual values (n = 2)
smiles,measurement,setting,value
CC(C(=O)O)c1ccc(-c2ccccc2)c(F)c1 (centres unmarked) [flurbiprofen],CYP2C9 1*/2*-Vmax,CYP2C9 1*/2*,11.53 pmol/min/pmol CYP
same,CYP2C9 1*/1*-Vmax,CYP2C9 1*/1*,15.79 pmol/min/pmol CYP
same,Km,CYP2C9 1*/1*; read-out: CYP2C9 1*/1*-Km,8.76 µM
same,observed decrease in CYP2C9 1*/3* clearance,[1]; [2],about 37%
same,"observed increase in AUC, CYP2C9 1*/3*",[1]; [2],1.62 fold
same,observed decrease in CYP2C9 1*/3* clearance,[1]; [3],~44%
same,"observed increase in AUC, CYP2C9 1*/3*",[1]; [3],1.74 fold
same,observed decrease in clearance,[1]; CYP2C9 1*/2* individuals,about 27%
same,observed decrease in clearance,[1]; CYP2C9 1*/3* individuals,~40%
same,Fox,[1]; PBPK input,0.71
same,Clrenal,[1],0.066 L/h
same,steady-state volume of distribution (Vss),[1],around 0.1 L/kg
same,fmCYP2C9,[1]; contribution to overall metabolic clearance,0.71
same,CYP2C9 metabolic contribution,"[1]; human, in vivo",at least 71%
same,absolute bioavailability,"[1]; human, in vivo",~ 95%
same,eliminated through metabolic oxidation to 4-hydroxy FLU,"[1]; human, in vivo",> 71 % of the dose
same,AUCinf obs,[1]; iv s.d. 50 mg,35.2 mg·h/L
same,fmCYP2C9,[1]; metabolism by polymorphic CYP2C9,≥ 0.71
same,dose excreted into urine as acyl glucuronide of (R)-FLU,[1]; oral racemic FLU,8.4%
same,dose excreted into urine as acyl glucuronide of (S)-FLU,[1]; oral racemic FLU,7.3%
same,AUCinf obs,[1]; po orod s.d. 150 mg,129.8 mg·h/L
same,Cmax obs,[1]; po orod s.d. 150 mg,16.8 mg/L
same,AUCinf obs,[1]; [4],29.3 mg·h/L
same,CL/F obs,[1]; [4],1.39 L/h
same,Cmax obs,[1]; [4],5.54 mg/L
same,AUCinf obs,[1]; [5],47.6 mg·h/L
same,CL/F obs,[1]; [5],0.88 L/h
same,Cmax obs,[1]; [5],6.93 mg/L
same,AUCinf obs,[1]; po sol s.d. 67.9 mg,55.1 mg·h/L
same,Cmax obs,[1]; po sol s.d. 67.9 mg,10.8 mg/L
same,AUCinf obs,[1]; po sol s.d. 100 mg,82.7 mg·h/L
same,CL/F obs,[1]; po sol s.d. 100 mg,1.28 L/h
same,Cmax obs,[1]; po sol s.d. 100 mg,14.2 mg/L
same,AUCinf obs,[1]; po tab (Ansaid) s.d. 100 mg,80.5 mg·h/L
same,Cmax obs,[1]; po tab (Ansaid) s.d. 100 mg,12.8 mg/L
same,AUCinf obs,[1]; po tab (Ansaid) s.d. 200 mg,161.3 mg·h/L
same,CL/F obs,[1]; po tab (Ansaid) s.d. 200 mg,1.32 L/h
same,Cmax obs,[1]; po tab (Ansaid) s.d. 200 mg,21.4 mg/L
same,AUCinf obs,[1]; po tab (Ansaid) s.d. 300 mg,233.9 mg·h/L
same,CL/F obs,[1]; po tab (Ansaid) s.d. 300 mg,1.36 L/h
same,Cmax obs,[1]; po tab (Ansaid) s.d. 300 mg,29.5 mg/L
same,AUCinf obs,[1]; [6],87.8 mg·h/L
same,CL/F obs,[1]; [6],1.27 L/h
same,Cmax obs,[1]; [6],13.2 mg/L
same,AUCinf obs,[1]; [7],82.3 mg·h/L
same,Cmax obs,[1]; [7],13.3 mg/L
same,AUCinf obs,[1]; [8],29.4 mg·h/L
same,CL/F obs,[1]; [8],1.77 L/h
same,Cmax obs,[1]; [8],5.38 mg/L
same,AUCinf obs,[1]; [9],30.8^a mg/L·h
same,CL/F obs,[1]; [9],1.6 ^a L/h
same,Cmax obs,[1]; [9],6.1 ^a mg/L
same,AUCinf obs,[1]; [10],40.7 mg·h/L
same,CL/F obs,[1]; [10],1.30 L/h
same,Cmax obs,[1]; [10],4.55 mg/L
same,AUCinf obs,[1]; [11],51.1 mg·h/L
same,CL/F obs,[1]; [11],1.00 L/h
same,Cmax obs,[1]; [11],5.42 mg/L
same,AUCinf obs,[1]; [12],53.7 ^a mg/L·h
same,CL/F obs,[1]; [12],0.9 ^a L/h
same,Cmax obs,[1]; [12],8.9 ^a mg/L
same,AUCinf obs,[1]; [13],85.8 mg·h/L and 119 mg·h/L
same,CL/F obs,[1]; [13],0.6 L/h and 0.4 L/h
same,Cmax obs,[1]; [13],8 mg/L and 9.4 mg/L
same,AUCinf obs,[1]; po tab s.d. 100 mg,67.7 mg·h/L
same,CL/F obs,[1]; po tab s.d. 100 mg,1.52 L/h
same,Cmax obs,[1]; po tab s.d. 100 mg,12.9 mg/L
same,AUCinf obs,[1]; po tab s.d. 150 mg,124.3 mg·h/L
same,Cmax obs,[1]; po tab s.d. 150 mg,15.2 mg/L
same,fraction absorbed (fa),[1]; small intestine,greater than 95%
same,pKa,physchem,4.05
